Measured values as given in article PMC9475448, “What a difference a methylene makes: replacing Glu with Asp or Aad in the Lys-urea-Glu pharmacophore of PSMA-targeting radioligands to reduce kidney and salivary gland uptake” (Theranostics, 2022).
Entries after “also recorded” stand apart in the source; their conditions may differ. Where two headings read alike, the source gives them in different places.

Assays:
LNCaP tumor-bearing mice [1] = assay: Ex vivo biodistribution of 177Lu-labeled ligands in LNCaP tumor-bearing NRG mice
LNCaP tumor-bearing mice [2] = assay: Longitudinal SPECT/CT imaging of 177Lu-labeled ligands; type: in vivo
Protocol: SPECT/CT imaging experiments were conducted using the MILabs (Utrecht, The Netherlands) U-SPECT-II/CT scanner. Each tumor-bearing mouse (n = 1-2 was injected with ∼37 MBq (50-250 pmol) of ^177Lu-labeled compound through a lateral caudal tail vein. The mice were imaged at 1, 4, 24, 72, and 120 h after injection. At each time point, a 5-min CT scan was conducted first for anatomical reference followed by 2 × 30-min static emission scans acquired in list mode.

LNCaP tumor-bearing mice [3] = details: mouse, in vivo

O=C([O-])CN1CCN(CC(=O)[O-])CCN(CC(=O)NCC2CCC(C(=O)NC(Cc3c4ccccc4cc4ccccc34)C(=O)NCCCCC(NC(=O)NC(CCCC(=O)O)C(=O)O)C(=O)O)CC2)CCN(CC(=O)[O-])CC1.[177Lu+3] (stereo not drawn) [[^177Lu]Lu-HTK03149]
Adrenal glands uptake (LNCaP tumor-bearing mice [1]; 24 h post-injection): 0.073 ± 0.018 %IA/g
Blood uptake (LNCaP tumor-bearing mice [1]; 24 h post-injection): 0.116 ± 0.007 %IA/g
Blood:Salivary gland uptake ratio (LNCaP tumor-bearing mice [1]; 24 h post-injection): 2.37 ± 0.24
Bone uptake (LNCaP tumor-bearing mice [1]; 24 h post-injection): 0.025 ± 0.003 %IA/g
Brain uptake (LNCaP tumor-bearing mice [1]; 24 h post-injection): 0.006 ± 0.001 %IA/g
Fat uptake (LNCaP tumor-bearing mice [1]; 24 h post-injection): 0.017 ± 0.002 %IA/g
Heart uptake (LNCaP tumor-bearing mice [1]; 24 h post-injection): 0.065 ± 0.004 %IA/g
Intestines uptake (LNCaP tumor-bearing mice [1]; 24 h post-injection): 0.086 ± 0.047 %IA/g
Kidneys uptake (LNCaP tumor-bearing mice [1]; 24 h post-injection): 0.596 ± 0.109 %IA/g
Lacrimal glands uptake (LNCaP tumor-bearing mice [1]; 24 h post-injection): 0.004 ± 0.005 %IA/g
Liver uptake (LNCaP tumor-bearing mice [1]; 24 h post-injection): 0.103 ± 0.008 %IA/g
Lungs uptake (LNCaP tumor-bearing mice [1]; 24 h post-injection): 0.122 ± 0.015 %IA/g
Muscle uptake (LNCaP tumor-bearing mice [1]; 24 h post-injection): 0.017 ± 0.003 %IA/g
Pancreas uptake (LNCaP tumor-bearing mice [1]; 24 h post-injection): 0.032 ± 0.005 %IA/g
Salivary glands uptake (LNCaP tumor-bearing mice [1]; 24 h post-injection): 0.049 ± 0.007 %IA/g
Spleen uptake (LNCaP tumor-bearing mice [1]; 24 h post-injection): 0.085 ± 0.012 %IA/g
Stomach uptake (LNCaP tumor-bearing mice [1]; 24 h post-injection): 0.125 ± 0.112 %IA/g
Testes uptake (LNCaP tumor-bearing mice [1]; 24 h post-injection): 0.047 ± 0.003 %IA/g
Thyroid uptake (LNCaP tumor-bearing mice [1]; 24 h post-injection): 0.060 ± 0.002 %IA/g
Tumor uptake (LNCaP tumor-bearing mice [1]; 24 h post-injection): 13.80 ± 2.876 %IA/g
Tumor:Blood uptake ratio (LNCaP tumor-bearing mice [1]; 24 h post-injection): 120 ± 31.1
Tumor:Muscle uptake ratio (LNCaP tumor-bearing mice [1]; 24 h post-injection): 842 ± 216
Tumor:Salivary gland uptake ratio (LNCaP tumor-bearing mice [1]; 24 h post-injection): 286 ± 88.4
Adrenal glands uptake (LNCaP tumor-bearing mice [1]; 72 h post-injection): 0.124 ± 0.052 %IA/g
Blood uptake (LNCaP tumor-bearing mice [1]; 72 h post-injection): 0.067 ± 0.016 %IA/g
Blood:Salivary gland uptake ratio (LNCaP tumor-bearing mice [1]; 72 h post-injection): 1.45 ± 0.69
Bone uptake (LNCaP tumor-bearing mice [1]; 72 h post-injection): 0.026 ± 0.011 %IA/g
Brain uptake (LNCaP tumor-bearing mice [1]; 72 h post-injection): 0.003 ± 0.002 %IA/g
Fat uptake (LNCaP tumor-bearing mice [1]; 72 h post-injection): 0.042 ± 0.042 %IA/g
Heart uptake (LNCaP tumor-bearing mice [1]; 72 h post-injection): 0.060 ± 0.014 %IA/g
Intestines uptake (LNCaP tumor-bearing mice [1]; 72 h post-injection): 0.088 ± 0.034 %IA/g
Kidneys uptake (LNCaP tumor-bearing mice [1]; 72 h post-injection): 0.679 ± 0.387 %IA/g
Lacrimal glands uptake (LNCaP tumor-bearing mice [1]; 72 h post-injection): 0.006 ± 0.007 %IA/g
Liver uptake (LNCaP tumor-bearing mice [1]; 72 h post-injection): 0.130 ± 0.034 %IA/g
Lungs uptake (LNCaP tumor-bearing mice [1]; 72 h post-injection): 0.108 ± 0.022 %IA/g
Muscle uptake (LNCaP tumor-bearing mice [1]; 72 h post-injection): 0.018 ± 0.003 %IA/g
Pancreas uptake (LNCaP tumor-bearing mice [1]; 72 h post-injection): 0.033 ± 0.002 %IA/g
Salivary glands uptake (LNCaP tumor-bearing mice [1]; 72 h post-injection): 0.051 ± 0.016 %IA/g
Stomach uptake (LNCaP tumor-bearing mice [1]; 72 h post-injection): 0.140 ± 0.104 %IA/g
Testes uptake (LNCaP tumor-bearing mice [1]; 72 h post-injection): 0.053 ± 0.008 %IA/g
Thyroid uptake (LNCaP tumor-bearing mice [1]; 72 h post-injection): 0.079 ± 0.008 %IA/g
Tumor uptake (LNCaP tumor-bearing mice [1]; 72 h post-injection): 17.1±4.70 %IA/g
Tumor:Blood uptake ratio (LNCaP tumor-bearing mice [1]; 72 h post-injection): 258 ± 74.7
Tumor:Muscle uptake ratio (LNCaP tumor-bearing mice [1]; 72 h post-injection): 985 ± 342
Tumor:Salivary gland uptake ratio (LNCaP tumor-bearing mice [1]; 72 h post-injection): 349 ± 109
Tumor uptake (LNCaP tumor-bearing mice [1]; 72 h post-injection, listed as [177Lu]Lu-HTK03149): 17.12 ± 4.702 %IA/g
Adrenal glands uptake (LNCaP tumor-bearing mice [1]; 120 h post-injection): 0.024 ± 0.027 %IA/g
Blood uptake (LNCaP tumor-bearing mice [1]; 120 h post-injection): 0.021 ± 0.006 %IA/g
Blood:Salivary gland uptake ratio (LNCaP tumor-bearing mice [1]; 120 h post-injection): 0.75 ± 0.19
Bone uptake (LNCaP tumor-bearing mice [1]; 120 h post-injection): 0.015 ± 0.007 %IA/g
Brain uptake (LNCaP tumor-bearing mice [1]; 120 h post-injection): 0.002 ± 0.001 %IA/g
Fat uptake (LNCaP tumor-bearing mice [1]; 120 h post-injection): 0.014 ± 0.009 %IA/g
Heart uptake (LNCaP tumor-bearing mice [1]; 120 h post-injection): 0.034 ± 0.014 %IA/g
Intestines uptake (LNCaP tumor-bearing mice [1]; 120 h post-injection): 0.069 ± 0.046 %IA/g
Kidneys uptake (LNCaP tumor-bearing mice [1]; 120 h post-injection): 0.276 ± 0.064 %IA/g
Lacrimal glands uptake (LNCaP tumor-bearing mice [1]; 120 h post-injection): 0.001 ± 0.002 %IA/g
Liver uptake (LNCaP tumor-bearing mice [1]; 120 h post-injection): 0.079 ± 0.041 %IA/g
Lungs uptake (LNCaP tumor-bearing mice [1]; 120 h post-injection): 0.086 ± 0.076 %IA/g
Muscle uptake (LNCaP tumor-bearing mice [1]; 120 h post-injection): 0.012 ± 0.004 %IA/g
Pancreas uptake (LNCaP tumor-bearing mice [1]; 120 h post-injection): 0.020 ± 0.007 %IA/g
Salivary glands uptake (LNCaP tumor-bearing mice [1]; 120 h post-injection): 0.029 ± 0.007 %IA/g
Spleen uptake (LNCaP tumor-bearing mice [1]; 120 h post-injection): 0.129 ± 0.079 %IA/g
Stomach uptake (LNCaP tumor-bearing mice [1]; 120 h post-injection): 0.084 ± 0.041 %IA/g
Testes uptake (LNCaP tumor-bearing mice [1]; 120 h post-injection): 0.033 ± 0.012 %IA/g
Thyroid uptake (LNCaP tumor-bearing mice [1]; 120 h post-injection): 0.044 ± 0.015 %IA/g
Tumor uptake (LNCaP tumor-bearing mice [1]; 120 h post-injection): 16.39 ± 10.99 %IA/g
Tumor:Blood uptake ratio (LNCaP tumor-bearing mice [1]; 120 h post-injection): 780 ± 451
Tumor:Muscle uptake ratio (LNCaP tumor-bearing mice [1]; 120 h post-injection): 1336 ± 566
Tumor:Salivary gland uptake ratio (LNCaP tumor-bearing mice [1]; 120 h post-injection): 533 ± 218
Excretion pathway (SPECT imaging) (LNCaP tumor-bearing mice [2]; mouse, in vivo): excreted mainly through the renal pathway; also recorded: excreted mainly via the renal pathway
Tumor size change in SPECT/CT images (LNCaP tumor-bearing mice [2]; ~37 MBq injected): tumors shrank from Day 1 to Day 5
Spleen uptake (LNCaP tumor-bearing mice [3]): 0.142 ± 0.062 %IA/g
